Data on three compounds can be found in patent US8530525B2 (priority 2009, dated 2013).

The conditions of series [1]: in vivo; cited from earlier work.
For a further series, the target named is α7 neuronal nAChR (Homo sapiens, UniProt P36544). Particulars: cited from earlier work.
The next series addresses α3β4 (Homo sapiens, UniProt P30926+P32297). Particulars: cited from earlier work.
In series [2] the test system is population spikes (PS) recorded from the CA1 area of the rat hippocampal slice. Format: cell-based.
For series [3], the system named is population spikes (PS) of the hippocampal slice.

Sequence of α3β4 (P32297 32-505): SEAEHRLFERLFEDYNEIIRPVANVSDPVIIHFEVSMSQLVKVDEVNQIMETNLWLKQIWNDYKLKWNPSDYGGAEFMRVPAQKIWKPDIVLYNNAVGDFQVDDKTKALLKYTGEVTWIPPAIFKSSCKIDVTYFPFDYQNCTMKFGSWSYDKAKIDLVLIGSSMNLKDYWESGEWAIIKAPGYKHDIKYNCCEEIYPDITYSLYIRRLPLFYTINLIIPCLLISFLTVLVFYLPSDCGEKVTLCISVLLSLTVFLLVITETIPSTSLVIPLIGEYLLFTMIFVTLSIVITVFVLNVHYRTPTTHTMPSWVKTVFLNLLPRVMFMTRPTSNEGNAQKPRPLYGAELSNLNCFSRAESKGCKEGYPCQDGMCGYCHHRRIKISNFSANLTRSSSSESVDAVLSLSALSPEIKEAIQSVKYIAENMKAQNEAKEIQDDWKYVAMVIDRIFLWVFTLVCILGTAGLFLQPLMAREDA
Sequence of α3β4 (P30926 22-498): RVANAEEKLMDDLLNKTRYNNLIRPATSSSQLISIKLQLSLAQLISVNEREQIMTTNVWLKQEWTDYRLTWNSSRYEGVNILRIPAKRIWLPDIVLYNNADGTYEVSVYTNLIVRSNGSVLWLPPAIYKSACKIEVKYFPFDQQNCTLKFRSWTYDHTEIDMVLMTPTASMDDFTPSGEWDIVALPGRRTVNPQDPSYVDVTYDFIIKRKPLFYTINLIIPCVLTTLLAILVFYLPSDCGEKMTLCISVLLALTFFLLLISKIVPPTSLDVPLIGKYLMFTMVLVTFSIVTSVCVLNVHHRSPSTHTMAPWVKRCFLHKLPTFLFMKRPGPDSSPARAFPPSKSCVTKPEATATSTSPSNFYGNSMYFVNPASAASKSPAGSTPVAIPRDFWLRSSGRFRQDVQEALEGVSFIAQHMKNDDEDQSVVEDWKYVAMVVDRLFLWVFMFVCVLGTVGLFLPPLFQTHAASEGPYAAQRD
Sequence of α7 neuronal nAChR (P36544 23-502): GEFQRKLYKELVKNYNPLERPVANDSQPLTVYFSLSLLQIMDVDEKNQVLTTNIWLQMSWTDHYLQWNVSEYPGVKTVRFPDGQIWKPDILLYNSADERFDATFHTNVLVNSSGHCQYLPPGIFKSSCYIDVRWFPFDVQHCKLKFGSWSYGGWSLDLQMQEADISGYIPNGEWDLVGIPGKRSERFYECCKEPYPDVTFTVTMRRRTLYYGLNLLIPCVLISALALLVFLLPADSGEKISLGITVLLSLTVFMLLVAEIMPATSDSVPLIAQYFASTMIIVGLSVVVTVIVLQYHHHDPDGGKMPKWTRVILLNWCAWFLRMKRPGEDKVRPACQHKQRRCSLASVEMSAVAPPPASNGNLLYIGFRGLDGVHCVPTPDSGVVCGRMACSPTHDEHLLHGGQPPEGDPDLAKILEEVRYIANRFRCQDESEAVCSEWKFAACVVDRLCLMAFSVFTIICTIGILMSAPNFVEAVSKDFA

For the compound `CC1=CC(O)CC(C)(O)C=CC(C(C)C)CCC(C)=CCC1` [4R cembranoid, (1S,2E,4R,6R,7E,11E)-cembra-2,7,11-triene-4,6-diol], in series [1], the Brain penetration result is recorded as “readily penetrates into the brain”; the Metabolism and excretion result was “promptly metabolized in the liver and excreted as a soluble metabolite”. Also, the “Antagonism of α7 neuronal nAChR” value at α7 neuronal nAChR is on record as “subtype selective antagonist”. Besides, the “Activity at α3β4 subtypes” value at α3β4 was “little activity”.
Consider `CCOP(=O)(OCC)Oc1ccc([N+](=O)[O-])cc1` [POX, paraoxon], for which the “Maximum inhibition of the PS” value in series [2] is reported as ~50%. Further, the IC50 in series [2] (read-out: POX IC50 for inhibition of PS) is ~1 µM.
Turning to `CN1[C@@H]2CC[C@H]1C[C@@H](OC(=O)C(CO)c1ccccc1)C2` (stereo partly shown) [atropine], the “Effect on PS area” value in series [3] is recorded as “did not affect PS area”.

The term IC50 denotes the concentration that inhibits the measured activity by half.
